Test results: patent US5248689A, “Substituted N-(imidazolyl)alkyl alanine derivatives” (SmithKline Beecham Corporation, priority 1990, dated 1993)
Where two headings read alike, the source gives them in different places.

How the values were obtained:
[1] = tested on: conscious rats made renin dependent hypertensive by ligation of the left renal artery; experiment: antihypertensive activity in conscious renin dependent hypertensive (renal artery ligated) rats; type: in vivo; details: Rattus norvegicus, 7-8 days after ligation, read-out: IC30 (dose needed to reduce mean arterial pressure by 30 mm Hg)
Experimental: (§1) Angiotensin II antagonist activity of the compounds of Formulas (I) is assessed by in vitro and in vivo methods. In vitro antagonist activity is determined by the ability of the compounds to compete with ^125 I-angiotensin II for binding to vascular angiotensin II receptors and by their ability to antagonize the contractile response to angiotensin II in the isolated rabbit aorta. In vivo activity is evaluated by the efficacy of the compounds to inhibit the pressor response to exogenous angiotensin II in conscious rats and to lower blood pressure in a rat model of renin dependent hypertension.
The antihypertensive activity of the compounds is measured by their ability to reduce mean arterial pressure in conscious rats made renin dependent hypertensive by ligation of the left renal artery (Cangiano et al., J. Pharmacol. Exp. Ther. 208:310, 1979). Renal artery ligated rats are prepared with indwelling catheters as described above. Seven to eight days following renal artery ligation, the time at which plasma renin levels are highest, the conscious rats are placed in restrainers and mean arterial pressure is continuously recorded prior to and following the administration of the compounds intravenously or orally. The dose of compound needed to reduce mean arterial pressure by 30 mm Hg (IC30) is used as an estimate of potency. […]

[2] = tested on: pressor response to angiotensin II; experiment: inhibition of pressor response to angiotensin II in conscious rats; type: in vivo; details: Rattus norvegicus, intravenous angiotensin II 250 mg/kg [sic], read-out: IC50 (dose needed to produce 50% inhibition of the control response to angiotensin II)
Experimental: as §1
Rats are prepared with indwelling femoral arterial and venous catheters and a stomach tube (Gellai et al., KidneyInt. 15:419, 1979). Two to three days following surgery the rats are placed in a restrainer and blood pressure is continuously monitored from the arterial catheter with a pressure transducer and recorded on a polygraph. The change in mean arterial pressure in response to intravenous injections of […] angiotensin II is compared at various time points prior to and following the administration of the compounds intravenously or orally at doses of 3 to 300 mg/kg. The dose of compound needed to produce 50% inhibition of the control response to angiotensin II IC50) is used to estimate the potency of the compounds.

CCCCc1ncc(CN[C@@](C)(Cc2cccs2)C(=O)O)n1Cc1ccccc1Cl [Example 6, N-[{1-[(2-chlorophenyl)methyl]-2-n-butyl-1H-imidazol-5-yl}methyl]-α-methyl-β-(2-thienyl)alanine]
ED (30 mm Hg) ([1]; iv): 15 mg/kg
ED (30 mm Hg) ([1]; po, orally): 70 mg/kg
ED50 ([2]; i.v.): 11 mg/kg
ED50 ([2]; po, orally): 45 mg/kg
